Test results published in patent publication US20100298141A1, “SUBSTITUTED PYRIDINE N-OXIDE HERBICIDES” (E. I. DU PONT DE NEMOURS AND COMPANY, priority 2007, published 2010).

Key:
Assay in all cases: Test A pre-/postemergence greenhouse test
barnyardgrass = assay type: in vivo, Echinochloa crus-galli; conditions: for Plant response rating, Barnyardgrass: 0 to 100 scale where 0 is no effect and 100 is complete control; for Barnyardgrass plant response rating: 0 to 100 scale
Description: (§1) Seeds of barnyardgrass (Echinochloa crus-galli), crabgrass (Digitaria sanguinalis), giant foxtail (Setaria faberi), morningglory (Ipomoea spp.), redroot pigweed (Amaranthus retroflexus), velvetleaf (Abutilon theophrasti), wheat (Triticum aestivum), and corn (Zea mays) were planted into a blend of loam soil and sand and treated preemergence with a directed soil spray using test compounds formulated in a non-phytotoxic solvent mixture which included a surfactant. At the same time these species were also treated with postemergence applications of test compounds formulated in the same manner. Plants ranged in height from two to ten cm and were in the one- to two-leaf stage for the postemergence treatment. Treated plants and untreated controls were maintained in a greenhouse for approximately ten days, after which time all treated plants were compared to untreated controls and visually evaluated for injury. […] A dash (-) response means no test results.

crabgrass = assay type: in vivo, Digitaria sanguinalis; conditions: for Plant response rating, Crabgrass, Large: 0 to 100 scale where 0 is no effect and 100 is complete control; for Crabgrass, Large plant response rating: 0 to 100 scale
Description: as §1

giant foxtail = assay type: in vivo, Setaria faberi; conditions: for Plant response rating, Foxtail, Giant: 0 to 100 scale where 0 is no effect and 100 is complete control; for Foxtail, Giant plant response rating: 0 to 100 scale
Description: as §1

morningglory = assay type: in vivo, Ipomoea spp.; conditions: for Plant response rating, Morningglory: 0 to 100 scale where 0 is no effect and 100 is complete control; for Morningglory plant response rating: 0 to 100 scale
Description: as §1

redroot pigweed = assay type: in vivo, Amaranthus retroflexus; conditions: for Plant response rating, Pigweed: 0 to 100 scale where 0 is no effect and 100 is complete control; for Pigweed plant response rating: 0 to 100 scale
Description: as §1

velvetleaf = assay type: in vivo, Abutilon theophrasti; conditions: for Plant response rating, Velvetleaf: 0 to 100 scale where 0 is no effect and 100 is complete control; for Velvetleaf plant response rating: 0 to 100 scale
Description: as §1

wheat = assay type: in vivo, Triticum aestivum; conditions: for Plant response rating, Wheat: 0 to 100 scale where 0 is no effect and 100 is complete control; for Wheat plant response rating: 0 to 100 scale
Description: as §1

corn = assay type: in vivo, Zea mays; conditions: for Plant response rating, Corn: 0 to 100 scale where 0 is no effect and 100 is complete control; for Corn plant response rating: 0 to 100 scale
Description: as §1

[1] = Postemergence, 500 g ai/ha, 0 is no effect, 100 is complete control
[2] = Preemergence, 125 g ai/ha, 0 no effect, 100 complete control
[3] = Preemergence, 500 g ai/ha, 0 no effect, 100 complete control

SMILES	Plant response rating, Barnyardgrass (barnyardgrass; Postemergence, 125 g ai/ha)	Barnyardgrass plant response rating (barnyardgrass; [1])	Barnyardgrass plant response rating (barnyardgrass; [2])	Barnyardgrass plant response rating (barnyardgrass; [3])	Plant response rating, Crabgrass, Large (crabgrass; Postemergence, 125 g ai/ha)	Crabgrass, Large plant response rating (crabgrass; [1])	Crabgrass, Large plant response rating (crabgrass; [2])	Crabgrass, Large plant response rating (crabgrass; [3])	Plant response rating, Foxtail, Giant (giant foxtail; Postemergence, 125 g ai/ha)	Foxtail, Giant plant response rating (giant foxtail; [1])	Foxtail, Giant plant response rating (giant foxtail; [2])	Foxtail, Giant plant response rating (giant foxtail; [3])	Plant response rating, Morningglory (morningglory; Postemergence, 125 g ai/ha)	Morningglory plant response rating (morningglory; [1])	Morningglory plant response rating (morningglory; [2])	Morningglory plant response rating (morningglory; [3])	Plant response rating, Pigweed (redroot pigweed; Postemergence, 125 g ai/ha)	Pigweed plant response rating (redroot pigweed; [1])	Pigweed plant response rating (redroot pigweed; [2])	Pigweed plant response rating (redroot pigweed; [3])	other results
CCCc1cc[n+]([O-])c([S+]([O-])Cc2c(C(F)(F)F)nn(C)c2OCC(F)(F)F)c1 (stereo not drawn) [Compound 114]	50	80	90	100	50	80	90	100	80	90	100	100	60	70	70	90	70	90	100	100	Plant response rating, Velvetleaf (velvetleaf; Postemergence, 125 g ai/ha): 50; Velvetleaf plant response rating (velvetleaf; [1]): 60; Velvetleaf plant response rating (velvetleaf; [2]): 60; Velvetleaf plant response rating (velvetleaf; [3]): 80; Plant response rating, Wheat (wheat; Postemergence, 125 g ai/ha): 50; Wheat plant response rating (wheat; [1]): 70; Wheat plant response rating (wheat; [2]): 60; Wheat plant response rating (wheat; [3]): 90; Plant response rating, Corn (corn; Postemergence, 125 g ai/ha): 60; Corn plant response rating (corn; [1]): 70; Corn plant response rating (corn; [2]): 30; Corn plant response rating (corn; [3]): 80
CCCc1cc[n+]([O-])c(S(=O)(=O)Cc2c(C(F)(F)F)nn(C)c2OCC(F)(F)F)c1 [Compound 115]	60	70	90	90	20	70	80	100	40	80	90	100	0	0	30	80	20	80	100	100	Plant response rating, Velvetleaf (velvetleaf; Postemergence, 125 g ai/ha): 0; Velvetleaf plant response rating (velvetleaf; [1]): 20; Velvetleaf plant response rating (velvetleaf; [2]): 20; Velvetleaf plant response rating (velvetleaf; [3]): 60; Plant response rating, Wheat (wheat; Postemergence, 125 g ai/ha): 30; Wheat plant response rating (wheat; [1]): 50; Wheat plant response rating (wheat; [2]): 20; Wheat plant response rating (wheat; [3]): 50; Plant response rating, Corn (corn; Postemergence, 125 g ai/ha): 0; Corn plant response rating (corn; [1]): 20; Corn plant response rating (corn; [2]): 30; Corn plant response rating (corn; [3]): 50
Cn1nc(C(F)(F)F)c(CS(=O)(=O)c2cc(C3CC3)cc[n+]2[O-])c1OCC(F)(F)F [Compound 119]	40	60	50	90	40	60	80	90	30	70	90	100	10	20	30	80	30	60	100	100	Plant response rating, Velvetleaf (velvetleaf; Postemergence, 125 g ai/ha): 10; Velvetleaf plant response rating (velvetleaf; [1]): 50; Velvetleaf plant response rating (velvetleaf; [2]): 20; Velvetleaf plant response rating (velvetleaf; [3]): 70; Plant response rating, Wheat (wheat; Postemergence, 125 g ai/ha): 30; Wheat plant response rating (wheat; [1]): 50; Wheat plant response rating (wheat; [2]): 0; Wheat plant response rating (wheat; [3]): 30; Plant response rating, Corn (corn; Postemergence, 125 g ai/ha): 0; Corn plant response rating (corn; [1]): 0; Corn plant response rating (corn; [2]): 0; Corn plant response rating (corn; [3]): 0
